# Data from patent US7186756B2, “Steroid derivatives and use thereof as medicaments” (Inovat, priority 2003, dated 2007).
# Tested on: bone cells (line UMR 106 or G 292)
# Experiment: fixation of calcium in the extra cellular matrix of cultured bone cells (atomic spectrophotometry)
# Assay type: cell-based
# Settings: for amount of fixed calcium in the extra cellular matrix of the osteoblasts: cells treated with 10 µg of calcium inhibitor, same conditions
# Description: In the same conditions the cells are treated with 10 µg Verapamil or any other inhibitor of the calcium such as Cinchonine or Diltiazem.
Compound,"fixed calcium (10 ng of Maltadiolone, in comparison with the untreated control cells, line UMR 106 or G 292)",fixative activity on the calcium (cells treated with both 1 μg IL-1 and 10 μg Maltadiolone),concentration from which recovery of the fixation of calcium on the extra cellular matrix may be detected (same conditions as previously (IL-1 treated cells)),amount of fixed calcium in the extra cellular matrix of the osteoblasts
2-oxo 3-hydroxy 25-ethylidene A-nor cholest-3-ene [Maltadiolone],increase in the fixed calcium,"restore a fixative activity on the calcium, equivalent to that of cells untreated with a calcium inhibitor",≥ 10 ng/mL,
C=C[C@H]1C[N@@]2CC[C@H]1C[C@@H]2[C@@H](O)c1ccnc2ccccc12 [Cinchonine],,,,equivalent to that of the cells treated with interleukin
COc1ccc([C@@H]2Sc3ccccc3N(CCN(C)C)C(=O)[C@@H]2OC(C)=O)cc1 [Diltiazem],,,,equivalent to that of the cells treated with interleukin
COc1ccc(CCN(C)CCCC(C#N)(c2ccc(OC)c(OC)c2)C(C)C)cc1OC (stereo not drawn) [Verapamil],,,,equivalent to that of the cells treated with interleukin
